Assay in all cases: Competition-based peptide-HLA class I binding assay
One assay has as its target HLA-A*02:01 (Homo sapiens, UniProt P04439, D140Y/D185E/D98H/E176V/E277Q/G131W/G231S/I119V/I121R/I166T/I218V/L300P/L318F/N151K/N90K/P208A/P217A/Q86G/Q94H/R138H/R169H/T345S). The conditions noted are these: concentration that inhibits 50% binding of fluorescently-labeled standard peptide […], read-out: In vitro HLA binding affinity (IC50, nM), peptide-HLA binding assay, A*02:01. The procedure: Competition-based peptide-HLA class I binding assays were performed as previously described ([60]).

The next assay concerns the target HLA-A*03:01 (Homo sapiens, UniProt P04439). The conditions noted are these: concentration that inhibits 50% binding of fluorescently-labeled standard peptide […], read-out: In vitro HLA binding affinity (IC50, nM), peptide-HLA binding assay, A*03:01. The procedure:
(§1) Competition-based peptide-HLA class I binding assays were performed as previously described ([60]). […] The standard peptides were […] for HLA-A^*02:01 and […] for HLA-A^*03:01 and HLA-A^*11:01.

The target in a further assay is HLA-A*11:01 (Homo sapiens, UniProt P04439, A114D/D185E/E176A/F33Y/L180Q/S129P/T187R). The note with it: concentration that inhibits 50% binding of fluorescently-labeled standard peptide […], read-out: In vitro HLA binding affinity (IC50, nM), peptide-HLA binding assay, A*11:01. The procedure: as §1

Our source for the IC50 values is article PMC6967030, “Apparent Lack of BRAF^V600E Derived HLA Class I Presented Neoantigens Hampers Neoplastic Cell Targeting by CD8^+ T Cells in Langerhans Cell Histiocytosis” (Frontiers in Immunology, 2020).

Ends that are not written are not given here.

In general, IC50 refers to the concentration that gives 50% inhibition. For KIGDFGLATE [KIGDFGLATE], the IC50 on HLA-A*02:01 amounted to 86900 nM. Take KIGDFGLATEK: the IC50 was found to be 672 nM on HLA-A*03:01 and 45 nM at HLA-A*11:01.

In the case of KIGDFGLATV, at HLA-A*02:01, the IC50 was found to be 40 nM.

For KIGDFGLATVK, the IC50 at HLA-A*03:01 is 415 nM; on HLA-A*11:01, 32 nM.
